The values below come from patent US20020040018A1, “Subtype selective melatonergics” (priority 2000, published 2002).

For data set [1], the system named is mice. The experiment in a line: Elevated platform test for phencyclidine-like behavioral effects. It is filed as in vivo. To be noted: 15 minutes after i.c.v. administration. The method, then:
The in vivo phencyclidine-like behavioral effects of CGX-031-120 is assessed by the elevated platform test as described by Evoniuk et al. (1991). The platform test is a rapid method for evaluating the behavioral effects of phencyclidine-like dissociative anesthetics in mice. […] Alternatively, as a control, a 44.5 nmol dose of MK 801 (dizocilpine) elicited 87.5% drug-induced falls from the elevated platform.

In data set [2] the test system is Frings audiogenic seizure-susceptible mice. The experiment in a line: Rotorod test of motor performance (toxicity) in Frings mice.
Experimental: All compounds were administered i.p. Varying doses of the compounds were tested. […] For this procedure, mice were tested for their ability to maintain balance on a rotating (6 rpm) knurled Plexiglas rod (1 inch diameter) for one minute. Mice unable to maintain balance in three successive trials during the test period were considered toxic. […] For these studies, the dose of each test substance was varied between the limits of 0 and 100% protection and toxicity. The protective index (PI) is TD50/ED50.
In data set [3] the test system is mice. The experiment in a line: Acute pain (tail-flick). The class given is in vivo. To be noted: intrathecal. The method, then: Acute pain (tail-flick). CGX-031-120 or saline is administered intrathecally (i.t.) according to the method of Hylden and Wilcox (1980) in a constant volume of 5 μl. Mice are gently wrapped in a towel with the tail exposed. At various time-points following the i.t. injection, the tail is dipped in a water bath maintained at 54 C. and the time to a vigorous tail withdrawal is recorded. If there is no withdrawal by 8 seconds, the tail is removed to avoid tissue damage.

The TD50 is the dose at which the toxic effect under study appears in half of the subjects. A lower TD50 goes with greater toxicity. Consider `CCC(=O)NCCc1c2n(c3ccc(OC)cc13)Cc1ccccc1-2` [CGX-031-120, N-propanol-2-(2-methoxy-6H-isoindolo-[2,1a]-indol-11-yl)-ethanamine], for which, in data set [1], the “drug-induced falls from the elevated platform” value is reported as “no drug-induced falls”. In addition, the “# Toxic/# Tested (at 2 hr)” value in data set [2] (300 mg/kg i.p.) is 0/8; in data set [2] (600 mg/kg i.p.) it was 0/4. For the same molecule, the “TD50” value in data set [2] (Table 6, i.p., rotorod) is >800 mg/kg; in data set [2] (audiogenic mouse model), > 900 mg/kg. For the same molecule, in data set [3], the “response latency in the tail flick model of acute pain” value is on record as “reduces the response latency”.
